Test results as given in the supplement of paper PMC10307832.

compound: O=C1NC(=O)[C@@H](c2cn3c4c(cccc24)CCC3)[C@@H]1c1c[nH]c2ccccc12 [Tivantinib] + O=C(c1cc(Cc2n[nH]c(=O)c3ccccc23)ccc1F)N1CCN(C(=O)C2CC2)CC1 [Olaparib] (partner 8 µM); test: relative viability (nuclei count vs DMSO), 5 days (fraction); higher = more cells survive; conditions: first compound 0.01 µM
How it was run: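 Five library-drug doses in √10 steps were combined with a fixed anchor-drug dose, or a single drug was given alone, by pin tool to lung cancer cell lines in 1536-well plates the day after seeding. Nuclei were stained and counted after 5 days. Relative viability is the nuclei count in treated wells over that in vehicle wells, taken as the median of duplicate plates.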

Cell Line	relative viability
NCI-H2087	0.56
Calu-6	0.611
HCC-44	0.961
NCI-H1703	0.524
NCI-H647	0.425
LK-2	0.903
NCI-H2126	0.94
NCI-H2342	0.513
SK-MES-1	0.751
HARA	1.02
COR-L23	0.339
COR-L 105	0.739
LC-2-ad	0.684
LU99A	0.272
ChaGo-K-1	0.401
NCI-H2170	0.558
NCI-H3122	0.643
IA-LM	0.907
HCC-78	0.99
A549	0.204
SW 900	0.939
LXF-289	1.02

Cell Line	relative viability
BEN	1.05
HCC-15	0.725
HCC-827	0.661
NCI-H441	0.482
LOU-NH91	0.861
NCI-H2023	0.52
A-427	0.761
NCI-H460	0.412
NCI-H727	0.746
NCI-H1755	0.9
NCI-H520	0.347
NCI-H2405	1.02
SW 1573	0.532
NCI-H1395	0.513
201T	0.837
NCI-H1975	0.799
HOP-62	0.463
NCI-H1299	0.941
NCI-H2347	0.556
NCI-H1355	0.807
NCI-H650	0.41
CAL-12T	0.731

Cell Line	relative viability
NCI-H1666	0.734
H3255	0.599
NCI-H23	0.357
NCI-H1915	0.262
NCI-H1437	0.605
NCI-H322M	0.718
NCI-H1792	0.406
NCI-H2085	0.825
HCC-366	0.278
NCI-H1793	0.982
PC-3 [JPC-3]	1.09
EKVX	0.812
LCLC-103H	0.713
NCI-H1650	0.832
NCI-H1944	0.368
NCI-H1993	1.22
SK-LU-1	0.595
ABC-1	0.875
NCI-H358	0.633
NCI-H661	0.742
RERF-LC-KJ	0.894

same assay, conditions: first compound 0.03162 µM

Cell Line	relative viability
NCI-H522	0.579
NCI-H838	0.77
NCI-H1651	0.187
EBC-1	0.681
NCI-H1734	0.615
NCI-H2009	0.674
EPLC-272H	0.698
PC-14	0.305
LCLC-97TM1	0.414
NCI-H596	0.661
NCI-H2228	0.815
EMC-BAC-2	0.477
NCI-H2087	0.628
Calu-6	0.572
HCC-44	0.963
NCI-H1703	0.444
NCI-H647	0.638
LK-2	0.639
NCI-H2126	0.933
NCI-H2342	0.423
SK-MES-1	0.659
HARA	0.49
COR-L23	0.417
COR-L 105	0.665
LC-2-ad	0.685
LU99A	0.267

Cell Line	relative viability
ChaGo-K-1	0.41
NCI-H2170	0.658
NCI-H3122	0.608
HCC-78	0.767
A549	0.253
SW 900	1.03
LXF-289	1.05
BEN	1.01
HCC-15	0.756
NCI-H1648	0.889
HCC-827	0.681
NCI-H441	0.552
LOU-NH91	0.888
NCI-H2023	0.452
A-427	0.794
NCI-H460	0.429
NCI-H727	0.785
NCI-H1755	0.85
NCI-H520	0.339
NCI-H2405	0.895
SW 1573	0.481
NCI-H1395	0.469
201T	0.794
NCI-H1975	0.77
HOP-62	0.451
NCI-H1299	0.933

Cell Line	relative viability
NCI-H2347	0.593
NCI-H1355	0.742
NCI-H650	0.432
CAL-12T	0.643
NCI-H1666	0.736
H3255	0.588
NCI-H23	0.335
NCI-H1915	0.227
NCI-H1437	0.629
NCI-H322M	0.754
NCI-H2085	0.817
HCC-366	0.35
NCI-H1793	0.761
PC-3 [JPC-3]	1.12
EKVX	0.893
LCLC-103H	0.802
NCI-H1650	0.817
NCI-H1944	0.424
NCI-H1993	1.04
SK-LU-1	0.464
ABC-1	1.17
NCI-H358	0.63
NCI-H661	0.744
RERF-LC-KJ	0.892

same assay, conditions: first compound 0.1 µM

Cell Line	relative viability
NCI-H522	0.698
NCI-H838	0.71
NCI-H1651	0.194
EBC-1	0.781
NCI-H1734	0.577
NCI-H2009	0.746
EPLC-272H	0.657
PC-14	0.228
LCLC-97TM1	0.455
NCI-H596	0.655
NCI-H2228	0.678
EMC-BAC-2	0.485
NCI-H2087	0.602
HCC-44	1.01
NCI-H1703	0.527
NCI-H647	0.401
LK-2	0.73
NCI-H2126	0.881
NCI-H2342	0.392
HARA	0.735
COR-L23	0.328
COR-L 105	0.729
LC-2-ad	0.692
LU99A	0.251
ChaGo-K-1	0.409
NCI-H2170	0.507

Cell Line	relative viability
NCI-H3122	0.584
IA-LM	0.789
HCC-78	0.709
A549	0.301
SW 900	0.809
LXF-289	1.01
BEN	0.961
HCC-15	0.643
NCI-H1648	0.611
HCC-827	0.673
NCI-H441	0.58
LOU-NH91	0.9
NCI-H2023	0.479
A-427	0.723
NCI-H460	0.399
NCI-H727	0.593
NCI-H1755	0.848
NCI-H520	0.291
NCI-H2405	0.868
SW 1573	0.544
NCI-H1395	0.44
201T	0.817
NCI-H1975	0.72
HOP-62	0.329
NCI-H1299	1.01
NCI-H2347	0.583

Cell Line	relative viability
NCI-H1355	0.726
NCI-H650	0.356
CAL-12T	0.677
NCI-H1666	0.696
H3255	0.57
NCI-H23	0.387
NCI-H1915	0.244
NCI-H1437	0.607
NCI-H322M	0.777
NCI-H1792	0.406
NCI-H2085	0.718
HCC-366	0.308
NCI-H1793	0.819
PC-3 [JPC-3]	1.11
EKVX	0.834
LCLC-103H	0.722
NCI-H1650	0.678
NCI-H1944	0.39
NCI-H1993	1.05
SK-LU-1	0.433
ABC-1	0.626
NCI-H358	0.505
NCI-H661	0.706
RERF-LC-KJ	0.917

same assay, conditions: first compound 0.3162 µM

Cell Line	relative viability
NCI-H522	0.517
NCI-H838	0.816
NCI-H1651	0.195
EBC-1	0.711
NCI-H1734	0.495
NCI-H2009	0.643
EPLC-272H	0.257
PC-14	0.26
LCLC-97TM1	0.407
NCI-H596	0.6
NCI-H2228	0.587
EMC-BAC-2	0.582
NCI-H2087	0.658
Calu-6	0.564
HCC-44	0.941
NCI-H1703	0.309
NCI-H647	0.638
LK-2	0.687
NCI-H2126	0.813
NCI-H2342	0.282
SK-MES-1	0.874
HARA	0.732
COR-L23	0.326
COR-L 105	0.585
LC-2-ad	0.706

Cell Line	relative viability
LU99A	0.254
ChaGo-K-1	0.398
NCI-H3122	0.665
IA-LM	0.809
HCC-78	0.62
A549	0.214
SW 900	0.742
LXF-289	1.02
BEN	0.857
HCC-15	0.917
NCI-H1648	0.528
NCI-H441	0.744
LOU-NH91	0.715
NCI-H2023	0.402
A-427	0.685
NCI-H460	0.39
NCI-H1755	0.898
NCI-H520	0.37
NCI-H2405	0.867
SW 1573	0.488
NCI-H1395	0.482
201T	0.831
NCI-H1975	0.734
HOP-62	0.477
NCI-H1299	0.93

Cell Line	relative viability
NCI-H2347	0.552
NCI-H1355	0.64
NCI-H650	0.34
CAL-12T	0.613
NCI-H1666	0.731
NCI-H23	0.348
NCI-H1915	0.239
NCI-H1437	0.588
NCI-H1792	0.3
NCI-H2085	0.778
HCC-366	0.346
NCI-H1793	0.45
PC-3 [JPC-3]	0.662
EKVX	0.296
LCLC-103H	0.778
NCI-H1650	0.624
NCI-H1944	0.374
NCI-H1993	0.589
SK-LU-1	0.512
ABC-1	0.955
NCI-H358	0.379
NCI-H661	0.699
RERF-LC-KJ	0.799
